# Assay results: US7405317B2, “Phosphate-bearing prodrugs of sulfonyl hydrazines as hypoxia-selective antineoplastic agents” (priority 2004, dated 2008)
# Tests used:
# [1] = Short term stability as a function of pH and citrate buffer (HPLC); format: physicochemical; settings: 20 mg/mL
# Protocol: The stabilities of VNP40541 were investigated. The sample (20 mg/mL) was dissolved in 20 mM citric acid and titrated to pH 2.0, pH 3.0, pH 4.0, pH 5.0, pH 6.0, and pH 7.0. To control for buffer catalysis, the drug was also titrated to pH 2.0, pH 5.0, and pH 6.0 in the absence of citrate. The samples were stored at 40° C. for 3 hours, 24 hours, and 3 days, and at room temperature for 24 hours, 3 days. Upon completion of each time point, samples were placed in a freezer at −15° C. Control samples of each preparation were also stored in the freezer. Each sample was analyzed by HPLC repetitively, at various time points, to determine the concentration of the respective drug.
# [2] = tested on: CHO-450red (human cytochrome P-450 reductase transfected CHO cells); assay: Aerobic/hypoxic cell survival, cytochrome P-450 reductase transfected CHO cells; format: cell-based; settings: drug 10 μM
# Protocol: EMT6 or CHO (parental or human cytochrome P-450 reductase transfected) cells, seeded in glass milk dilution bottles, were gassed for 2 hours through a rubber septum fitted with 13 gauge (inflow) and 18 gauge (outflow) needles with a mixture of 5% CO2, oxygen at various concentrations, with the balance of the mixture made up of nitrogen, to establish various hypoxic conditions. Drugs were then injected without disrupting hypoxia. After two hours, cells were collected and plated in a clonogenic assay to determine the surviving fraction, compared to untreated controls.
# For in vitro analysis, KS119W must be converted to KS119OH (1) in an AP-catalyzed reaction shown above in FIG. 2, as the phosphorylated parent drug cannot cross cell membranes. KS119OH is then used in all subsequent in vitro studies shown in this section.
# Like KS119, cytochrome P-450 reductase can activate KS1190H under hypoxic conditions.
# [3] = Maximum tolerated dose (MTD) finding; format: in vivo, mice
# Protocol: In order to fairly select a better compound from two enantiomers of KS119W for future clinical development, finding maximum tolerated dose (MTD) for VNP40541 (R-form) and VNP40551 (S-form) was conducted and the results were shown as Table 3.
# [4] = tested on: EMT-6 murine mammary carcinoma; format: in vivo, mice; settings: EMT6/BLAB-c Mice; dose VNP40541 85-115 mpk, VNP40551 55-85 mpk
# Protocol: (§1) The anti-tumor effects of aforementioned prodrugs are evaluated in both solid and liquid tumor models, including the B16-F10 murine melanoma, HTB177 human lung carcinoma models, DLD1 human colon carcinoma, EMT-6 murine mammary gland carcinoma, L1210 murine leukemia, lymphoma, prostate cancer, pancreatic cancer, and head-and-neck cancer. The prodrugs are given intravenously, orally, or intraperitoneally at doses from 10 mg/kg to 2000 mg/kg; they are give at different dosing schedules such as 4 times daily, once daily, or once every several days for up to 60 doses. Testing tumor cells were implanted subcutaneously into mice, which were randomized into groups immediately after tumor cell implantation (Day 0). Mice were injected intraperitoneally (ip) with either a bolus injection of 0.1 mL PBS or drug. The treatment was carried out in a designed dosing schedule. Tumor measurement in three dimensions was determined once a week with the formula L×H×W/2, where L, H, and W represent length, height, and width, respectively.
# (§2) Efficacy of KS119 was studied in murine tumor model and human xenograft models. EMT-6 murine mammary carcinoma cells (3×10^5 cells/mouse) were implanted subcutaneously into Balb/c mice. H460 human lung carcinoma cells, HT29 human colon carcinoma cells and SHP77 human lung carcinoma cells were established as solid xenografts in nu/nu CD-1 mice and Scid/Beige mice with 7×10^7 cells/mouse, respectively. After implantation, tumors were allowed to grow to a size of 150 to 200 mm^3 before starting treatment with KS119. KS119 was formulated in a solvent containing polyethylene glycol 300 (PEG), ethyl alcohol, citric acid, and ascorbic acid.
# (§3) Efficacies of KS119W and KS119 were compared with equivalence molar doses in EMT-6 tumor and H460 tumor models. KS119W was formulated with 0.25M sodium bicarbonate solution. The treatment was started when tumors researched 150 to 200 mm^3, and lasted up to 2 weeks. KS119 at doses of 80 and 100 mg/kg and KS119W at doses of 97.6 and 121.3 mg/kg were daily administrated into mice via ip injection. […] To assess the toxicity of treatment, body weight and peripheral blood cell count were monitored after treatment.
# (§4) Combined therapy of KS119W with cytoxan (CTX) was evaluated by using KS119W at dose below the MTD in combination with nontoxic dose of CTX against EMT-6 murine mammary carcinoma and H460 human lung carcinoma in CD-1 nude mice. The tumors were allowed to grow to a size of approximately 200 mm^3. In H460 tumor model, the animals received either with 4 doses 180 mg/kg and 1 dose 240 mg/kg of KS119 or CTX at dose of 100 mg/kg per dose per animal, ip injecting the drugs on 15, 22, 27, 34 and 43 days after the tumor implantation. In the combination studies, CTX was given two hours after dosing KS119W.
# [5] = tested on: H460 human lung carcinoma; format: in vivo, mice; settings: H460/Nude Mice; dose VNP40541 80-140 mpk, VNP40551 40-80 mpk
# Protocol: as §1, §2, §3, §4
smiles,measurement,setting,value
C[C@@H](OC(=O)N(N(CCCl)S(C)(=O)=O)S(C)(=O)=O)c1ccc([N+](=O)[O-])c(OP(=O)(O)O)c1 [VNP40541],"Assay (HPLC, relative to control samples stored at −15° C.)","[1]; pH 2.0, citrate 20 mM, 3 hrs 40° C.",98.8%
same,"Assay (HPLC, relative to control samples stored at −15° C.)","[1]; pH 2.0, citrate 20 mM, 24 hrs 40° C.",92.3%
same,"Assay (HPLC, relative to control samples stored at −15° C.)","[1]; pH 2.0, citrate 20 mM, 24 hrs Room Temp.",99.3%
same,"Assay (HPLC, relative to control samples stored at −15° C.)","[1]; pH 2.0, citrate None, 3 hrs 40° C.",98.9%
same,"Assay (HPLC, relative to control samples stored at −15° C.)","[1]; pH 2.0, citrate None, 24 hrs 40° C.",91.7%
same,"Assay (HPLC, relative to control samples stored at −15° C.)","[1]; pH 2.0, citrate None, 24 hrs Room Temp.",99.4%
same,"Assay (HPLC, relative to control samples stored at −15° C.)","[1]; pH 3.0, citrate 20 mM, 3 hrs 40° C.",98.9%
same,"Assay (HPLC, relative to control samples stored at −15° C.)","[1]; pH 3.0, citrate 20 mM, 24 hrs 40° C.",91.3%
same,"Assay (HPLC, relative to control samples stored at −15° C.)","[1]; pH 3.0, citrate 20 mM, 24 hrs Room Temp.",99.3%
same,"Assay (HPLC, relative to control samples stored at −15° C.)","[1]; pH 4.0, citrate 20 mM, 3 hrs 40° C.",99.8%
same,"Assay (HPLC, relative to control samples stored at −15° C.)","[1]; pH 4.0, citrate 20 mM, 24 hrs 40° C.",92.2%
same,"Assay (HPLC, relative to control samples stored at −15° C.)","[1]; pH 4.0, citrate 20 mM, 24 hrs Room Temp.",100.1%
same,"Assay (HPLC, relative to control samples stored at −15° C.)","[1]; pH 5.0, citrate 20 mM, 3 hrs 40° C.",98.8%
same,"Assay (HPLC, relative to control samples stored at −15° C.)","[1]; pH 5.0, citrate 20 mM, 24 hrs 40° C.",92.2%
same,"Assay (HPLC, relative to control samples stored at −15° C.)","[1]; pH 5.0, citrate 20 mM, 24 hrs Room Temp.",99.4%
same,"Assay (HPLC, relative to control samples stored at −15° C.)","[1]; pH 5.0, citrate None, 3 hrs 40° C.",99.4%
same,"Assay (HPLC, relative to control samples stored at −15° C.)","[1]; pH 5.0, citrate None, 24 hrs 40° C.",92.5%
same,"Assay (HPLC, relative to control samples stored at −15° C.)","[1]; pH 5.0, citrate None, 24 hrs Room Temp.",99.7%
same,"Assay (HPLC, relative to control samples stored at −15° C.)","[1]; pH 6.0, citrate 20 mM, 3 hrs 40° C.",99.0%
same,"Assay (HPLC, relative to control samples stored at −15° C.)","[1]; pH 6.0, citrate 20 mM, 24 hrs 40° C.",93.8%
same,"Assay (HPLC, relative to control samples stored at −15° C.)","[1]; pH 6.0, citrate 20 mM, 24 hrs Room Temp.",98.6%
same,"Assay (HPLC, relative to control samples stored at −15° C.)","[1]; pH 6.0, citrate None, 3 hrs 40° C.",99.3%
same,"Assay (HPLC, relative to control samples stored at −15° C.)","[1]; pH 6.0, citrate None, 24 hrs 40° C.",93.8%
same,"Assay (HPLC, relative to control samples stored at −15° C.)","[1]; pH 6.0, citrate None, 24 hrs Room Temp.",100.0%
same,"Assay (HPLC, relative to control samples stored at −15° C.)","[1]; pH 7.0, citrate 20 mM, 3 hrs 40° C.",99.6%
same,"Assay (HPLC, relative to control samples stored at −15° C.)","[1]; pH 7.0, citrate 20 mM, 24 hrs 40° C.",94.0%
same,"Assay (HPLC, relative to control samples stored at −15° C.)","[1]; pH 7.0, citrate 20 mM, 24 hrs Room Temp.",99.7%
same,Surviving fraction at 0.1% oxygen,[2]; 0.1% oxygen,0.001368
same,Surviving fraction in air,[2]; air,0.9277
same,MTD,"[3]; BALB/c mice, × 5",100 mpk
same,MTD,"[3]; Nude CD-1 mice, × 10",140 mpk
same,MTD,"[3]; Scid/Beige mice, × 8",110 mpk
same,Inhibition (%),[4],58-69%
same,Inhibition (%),[5],52-80%
